Target: Protease (Human immunodeficiency virus 1, UniProt Q9YQ12)
Assay: Inhibition of HIV1 recombinant protease expressed in Escherichia coli

Sequence of Protease (Q9YQ12 whole entry): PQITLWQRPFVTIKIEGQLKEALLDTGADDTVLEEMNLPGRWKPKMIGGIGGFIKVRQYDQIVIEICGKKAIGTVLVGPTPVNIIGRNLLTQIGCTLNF

SMILES: C=CCN([C@H]1CNC[C@@H]1N(CC=C)S(=O)(=O)c1ccccc1)S(=O)(=O)c1ccccc1
- Ki: 12300 nM

SMILES: Cc1ccccc1S(=O)(=O)N(Cc1ccccc1)[C@H]1CNC[C@@H]1N(Cc1ccccc1)S(=O)(=O)c1ccccc1C
- Ki: 670 nM

SMILES: C=C(C)CN([C@H]1CNC[C@@H]1N(CC(=C)C)S(=O)(=O)c1ccccc1)S(=O)(=O)c1ccccc1
- Ki: 74700 nM

SMILES: O=S(=O)(c1ccccc1)N(Cc1ccc(C(F)(F)F)cc1)[C@H]1CNC[C@@H]1N(Cc1ccc(C(F)(F)F)cc1)S(=O)(=O)c1ccccc1
- Ki: 800 nM

SMILES: O=[N+]([O-])c1ccc(S(=O)(=O)N(Cc2ccccc2)[C@H]2CNC[C@@H]2N(Cc2ccccc2)S(=O)(=O)c2ccc([N+](=O)[O-])cc2)cc1
- Ki: 1720 nM

SMILES: CC(C)=CCN([C@H]1CNC[C@@H]1N(CC=C(C)C)S(=O)(=O)c1ccccc1)S(=O)(=O)c1ccccc1
- Ki: 1570 nM

SMILES: O=S(=O)(c1ccccc1)N(Cc1ccc(Br)cc1)[C@H]1CNC[C@@H]1N(Cc1ccc(Br)cc1)S(=O)(=O)c1ccccc1
- Ki: 460 nM
